Measured values reported in US10238761B1, “Method and an integrated device for an area decontamination process” (NANOMIST SYSTEMS, LLC, priority 2013, dated 2019).
Like-named read-outs stand apart in the source and are kept apart here.

System: G. Stearothermophilus
Procedure: Tests were conducted in a 36 m^3 room without carpet (i.e., with tiled floor) and also in a 110 m^3 room with wall-to-wall carpet and configured to simulate a larger room with an attached bathroom with a door opening. Biological indicator (BI) test disks inoculated with 4-log, 5-log and 6-log populations of G. Stearothermophilus prepared by Mesa Labs were used.
BI test disks were placed at various locations within the room and doors and windows and other ventilation to the room was closed. Room temperature was not intentionally controlled, but was maintained at between about 22° C. and 26° C. The test area was pre-conditioned to a relative humidity of about 50%. A predetermined amount of biocide, a 35% hydrogen peroxide vapor, was rapidly injected into the room, with the rate of injection being about 50 g per minute or producing about 17.5 g of HP vapor per minute. The “inactivation time” or time from the initiation of the biocide injection through the residence time was a total of about 10 minutes. The room was then aerated until the concentration of biocide dropped to about 1 ppm. The overall cycle time was then calculated as the time for biocide injection, biocide contact or inactivation time, and the aeration time.

Measured: Kill Efficiency

OO [35% HP solution, hydrogen peroxide]
4-log: Test A: 36-m^3 room, tile, injected mass 0.6 g/m^3, HP mass 22 g, injection rate 11.4 g/min, injection time 1.8 min, residence time 8.2 min
5-log: Test 3: 36 m^3 room, injected mass 2.4 g/m^3, HP mass 86.4 g, injection time 12.7 min, injection rate 6.8 g/min (0.19 g/min/m3) of HP | Test 7: 36 m^3 room, injected mass 2 g/m^3, HP mass 72 g, injection time 12 min, injection rate 6.0 g/min (0.17 g/min/m3) of HP | Test 9: 36 m^3 room, injected mass 2 g/m^3, HP mass 72.7 g, injection time 9.6 min, injection rate 7.6 g/min (0.21 g/min/m3) of HP | Test 11: 36 m^3 room, injected mass 2.2 g/m^3, HP mass 79.6 g, injection time 13 min, injection rate 6.1 g/min (0.17 g/min/m3) of HP | Test B: 36-m^3 room, tile, injected mass 0.7 g/m^3, HP mass 26 g, injection rate 11.0 g/min, injection time 2.4 min, residence time 7.6 min | Test D: 100-m^3 room, carpet, second doorway with non-line-of-sight BI, injected mass 0.8 g/m^3, HP mass 91 g, injection rate 13.0 g/min, injection time 7.0 min, residence time 3.0 min
6-log: Test 4: 36 m^3 room, injected mass 2.4 g/m^3, HP mass 86.4 g, injection time 8.3 min, injection rate 10.4 g/min (0.29 g/min/m3) of HP | Test 8: 36 m^3 room, injected mass 2 g/m^3, HP mass 72 g, injection time 6.5 min, injection rate 11.1 g/min (0.31 g/min/m3) of HP | Test 10: 36 m^3 room, injected mass 2 g/m^3, HP mass 73.1 g, injection time 6.5 min, injection rate 11.2 g/min (0.31 g/min/m3) of HP | Test 12: 36 m^3 room, injected mass 2.1 g/m^3, HP mass 74.9 g, injection time 4.3 min, injection rate 17.4 g/min (0.48 g/min/m3) of HP | Test C: 36-m^3 room, tile, injected mass 1.7 g/m^3, HP mass 59 g, injection rate 12.3 g/min, injection time 4.8 min, residence time 5.2 min | Test E: 100-m^3 room, carpet, second doorway with non-line-of-sight BI, injected mass 1.8 g/m^3, HP mass 201 g, injection rate 21.1 g/min, injection time 9.5 min, residence time 0.5 min
